Experimental data reported in patent US7842471B2, “Ultra sensitive biosensor for detecting bio-signal transmitters, and detector and detecting method using the same” (priority 2007, dated 2010).

What was measured:
[1] = system: cultured cortical astrocytes; assay: sniffer-patch detection of glutamate release from cultured wild-type astrocytes with GluR1(L497Y)-transfected HEK cells; type: cell-based, mice; conditions: for inward current in HEK cells expressing GluR1(L497Y): brief (<1 sec) pressure application, 500 μM TFLLR, 300 μM ATP, 180 μM bradykinin, wild-type astrocytes
Description: (§1) HEK 293 cells were transfected with a 1:3.5 ratio of GFP and GluR1(L497Y) using the calcium phosphate method using effectence for 6-8 hours, after which the media was replaced and supplemented with 1 mM kynurenic acid and 10 μM N-(4-hydroxyphenylpropanoyl) spermine or 10 μM CNQX. The transfected HEK cells were subsequently trypsinized and replated onto astrocyte feeder layers derived from either wild-type or PAR1−/− mice 24 hours post-transfection, and recordings were performed 24 hours after replating. The prepared transfectant was used as a biosensor in the following examples.
In this experimental example, the glutamate release from astrocytes was quantitatively evaluated in real time by a “sniffer-patch” detection system. […] The “sniffer-patch” method was performed according to “T. G. J. Allen, Trends Neurosci., Vol. 20, No. 5 pp. […], 1997”, unless there is different mention thereto.
Cultured astrocytes were prepared from P0-P3 postnatal mice obtained from KIST SPF. The cerebral cortex was dissected free of adherent meninges, minced, and dissociated into single cell suspension by trituration through a Pasteur pipette. All procedures involving the use of animals were reviewed and approved by the Emory University IACUC. Dissociated cells were plated onto either 12 mm glass coverslips or 6 well plates coated with 0.1 mg/ml poly-D-lysine. Cells were grown in DMEM media (Gibco, cat# 11960-044) supplemented with 25 mM glucose, 10% heat-inactivated horse serum, and 10% heat-inactivated fetal bovine serum, 2 mM glutamine, and 1000 units/ml penicillin-streptomycin. Cultures were maintained at 37° C. in a humidified 5% CO2-containing atmosphere. Astrocyte cultures prepared in this way were previously determined by GFAP (glial fibrillary acidic protein) staining to be greater than 95% astrocytes (Nicole et al., 2005). In some experiments, the culture media was replaced 24 hours after plating with DMEM with all added components except glutamine, and cultures were maintained for 4 days before experimentation in glutamine-free media.
Thus, this technique provides millisecond time resolution for the detection of micromolar levels of glutamate released from astrocytes.
(§2) GluR1(L497Y)-transfected HEK cells were directly plated onto an astrocyte monolayer, and subsequently the whole cell HEK current response under voltage clamp during brief 0.2 sec application of the PAR1 activator TFLLR (500 μM), ATP (300 μM), or bradykinin (180 μM), respectively, from a pressurized pipette was recorded (FIGS. 1a, and 1b).

PAR1-/- astrocytes [2] = assay: sniffer-patch detection of glutamate release from PAR1-/- astrocytes with GluR1(L497Y)-transfected HEK cells; type: cell-based, mice
Description: as §1, §2

wild-type astrocytes = assay: Fura-2 Ca2+ imaging in wild-type astrocytes; type: cell-based, mice; conditions: brief (<1 sec) pressure application; 500 μM TFLLR, 300 μM ATP, 180 μM bradykinin; Fura-2-AM
Description: (§3) FIG. 1a is a schematic illustrating experimental setup and a GFP fluorescent image of astrocyte—GluR1(L497Y)/GFP transfected HEK cell co-culture (upper left panel). […] The Fura2-AM loading was performed by incubating with 5 μM Fura2-AM in 1 μM pluronic acid (Molecular Probes) for 30 min at room temperature. The calibration bar is 20 μm.

PAR1-/- astrocytes [3] = assay: Ca2+-sensitive dye imaging in PAR1-/- astrocytes; type: cell-based, mice; conditions: TFLLR application
Description: as §3
(§4) These control experiments were performed on the same day as TFLLR stimulation of HEK cells on wild-type astrocytes, and confirm that PAR1 activators had no direct effect on GluR1(L497Y) currents in HEK cells.

HEK cells = assay: Ca2+-sensitive dye imaging in HEK cells (endogenous PAR1); type: cell-based; conditions: TFLLR application, co-culture on PAR1-/- astrocytes
Description: as §3, §4

[4] = system: acutely dissociated CA1 astrocytes; assay: glutamate release from acutely dissociated CA1 hippocampal astrocytes detected with GluR1(L497Y)-transfected HEK cells; type: cell-based, mice; conditions: brief (1 sec) application of TFLLR; n=4
From the text: Cells were acutely dissociated from the CA1 region of hippocampal slices prepared from transgenic mice (Jackson Laboratories) expressing GFP under control of the GFAP promoter (Brenner et al., 1994), allowing to unambiguously identify isolated hippocampal astrocytes that had not been subject to tissue culture. Cells were dissociated directly onto GluR1(L497Y)-transfected HEK cells obtained in Example 1.

cultured neurons = assay: glutamate release from cultured neurons detected with GluR1(L497Y)-transfected HEK cells; type: cell-based
Description: To verify this prediction, effects of a hyperosmotic solution on the glutamate-release from cultured neurons and astrocytes were evaluated and are shown in FIGS. 3a to 3c.
The detection is abolished by the treatment of 10 μM CNQX. The right panel is the summary of the current amplitude changes; *p<0.05; paired t-test (n=6).
That is, a brief application of TFLLR caused no detectable glutamate-induced current in GluR1(L497Y)-transfected HEK cells adjacent to neurons.

NR1-1a/NR2A2D = assay: D-serine or glycine release from astrocytes detected with NR1-1a/NR2A2D-transfected HEK cells; type: cell-based; conditions: 100 uM glutamate + 10 uM DCKA vs 100 uM glutamate alone; 500 uM TFLLR
Description: HEK 293 cells were transfected NR1-1a and NR2A2D at a ratio of 1:2 by using the calcium phosphate method using effectence for 6-8 hours, after which the media was replaced and supplemented with 5 mM magnesium chloride and 10 μM D-2-amino-phosphonopentanoic acid or 10 μM D-AP5. The transfected HEK cells were subsequently trypsinized and replated onto astrocyte feeder layers derived from wild-type 24 hours post-transfection, and recordings performed 24 hours after replating. The prepared transfectant was used as a biosensor in the following examples.
To activate the NMDA receptor, it is necessary for the two subunits to bind to the corresponding binding materials, respectively. The activation may be confirmed by measuring intracellular inward current.
In this example, the media was supplemented with sufficient glutamate to saturate the glutamate domain. The intracellular inward current in the biosensor prepared in Example 5, under the conditions with or without treating a glycine binding domain blocker, DCKA, which artificially makes a glycine-free or D-serine-free condition, to examine the glycine or D-serine detecting ability of the biosensor.

GluR1(L497Y) = molecular target: T1, GluR1(L497Y) (Rattus norvegicus, UniProt P19490, L497Y); assay: glutamate activation of GluR1(L497Y) current in transfected HEK cells (dose response); type: cell-based
T1 construct: expressed in transfected cells; host or cells: HEK 293 cells (ATCC1573)
Description: as §1

T1 sequence (P19490 19-907 L497Y): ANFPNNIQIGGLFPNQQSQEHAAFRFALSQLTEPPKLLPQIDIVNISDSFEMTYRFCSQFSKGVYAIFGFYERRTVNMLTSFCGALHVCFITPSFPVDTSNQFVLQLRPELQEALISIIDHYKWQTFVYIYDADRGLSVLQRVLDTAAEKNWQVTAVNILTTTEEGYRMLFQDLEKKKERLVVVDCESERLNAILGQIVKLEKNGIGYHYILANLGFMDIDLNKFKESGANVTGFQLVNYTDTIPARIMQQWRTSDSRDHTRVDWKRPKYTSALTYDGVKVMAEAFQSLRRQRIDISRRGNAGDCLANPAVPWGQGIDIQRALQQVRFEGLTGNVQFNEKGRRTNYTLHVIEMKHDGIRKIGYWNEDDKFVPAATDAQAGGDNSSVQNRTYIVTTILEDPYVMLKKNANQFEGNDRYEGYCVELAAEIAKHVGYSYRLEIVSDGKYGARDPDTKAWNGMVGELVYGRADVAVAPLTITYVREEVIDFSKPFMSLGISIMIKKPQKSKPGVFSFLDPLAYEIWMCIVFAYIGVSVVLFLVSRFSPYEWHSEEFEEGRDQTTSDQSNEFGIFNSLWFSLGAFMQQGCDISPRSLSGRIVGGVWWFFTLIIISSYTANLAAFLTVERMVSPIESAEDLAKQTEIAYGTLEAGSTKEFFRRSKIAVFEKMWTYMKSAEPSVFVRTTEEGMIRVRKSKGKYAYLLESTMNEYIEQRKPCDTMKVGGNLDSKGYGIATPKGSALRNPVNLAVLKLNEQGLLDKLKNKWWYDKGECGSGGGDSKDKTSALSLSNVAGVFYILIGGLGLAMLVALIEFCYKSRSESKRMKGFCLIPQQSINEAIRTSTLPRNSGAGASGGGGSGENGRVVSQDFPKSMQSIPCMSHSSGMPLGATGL

For TFLLR, the “current response, % of the maximal response” value ([1]; astrocytes cultured in the absence of glutamine, TFLLR 500 μM, n=4) was 9.7 ± 1.3%, the “inward current in HEK cells expressing GluR1(L497Y)” value [1] was “elicited an inward current” and the “glutamate evoked current (%)” value ([1]; percent of maximal response, applied to wild-type astrocytes, glutamine-containing medium, TFLLR 500 μM in pipette) was 10±2.6%. For the same compound, the “glutamate-induced current in GluR1(L497Y) HEK cells on astrocytes” value ([1]; same-day positive control, TFLLR or hyperosmotic solution, n=4) was 136±35 pA, the “peak (maximum) glutamate concentration” value ([1]; wild-type astrocyte cultures, TFLLR application, converted from current by Formula 1) was 1.1 ± 0.24 µM and the “peak (maximum) glutamate concentration” value (PAR1-/- astrocytes [2]; PAR1-/- astrocyte cultures, TFLLR application, converted from current by Formula 1) was 0.23 ± 0.13 µM. The “glutamate evoked current (%)” value (PAR1-/- astrocytes [2]; percent of maximal response, applied to PAR1-/- astrocytes) was 1.4±0.9%, the “astrocytic intracellular Ca2+” value (wild-type astrocytes) was “increased” and the “PAR1-/- astrocytic intracellular Ca2+” value (PAR1-/- astrocytes [3]) was “did not alter”. For the same compound, the “HEK cell intracellular Ca2+” value (HEK cells) was “did increase”, the “glutamate release (concentration) evoked by TFLLR” value [4] was 1.46 ± 0.54 µM and the “glutamate-induced current in GluR1(L497Y) HEK cells adjacent to neurons” value (cultured neurons; 30 μM TFLLR or hyperosmotic solution, n=3) was 3.0±0.1 pA.
`Nc1ncnc2c1ncn2[C@@H]1O[C@H](COP(=O)(O)OP(=O)(O)OP(=O)(O)O)[C@@H](O)[C@H]1O` [ATP] was tested, and the “inward current in HEK cells expressing GluR1(L497Y)” value [1] was “elicited an inward current” and the “astrocytic intracellular Ca2+” value (wild-type astrocytes) was “increased”.
With `O=C(O)c1cc(=O)c2c(Cl)cc(Cl)cc2[nH]1` [DCKA, 5,7-dichlorokynurenic acid] the “inward current value after treating TFLLR” value (NR1-1a/NR2A2D) was “considerably decreased”.
Work on `N[C@@H](CCC(=O)O)C(=O)O` [glutamate] yielded a Hill slope (GluR1(L497Y)) of 1.3.
`N#Cc1cc2[nH]c(=O)c(=O)[nH]c2cc1[N+](=O)[O-]` [CNQX] was tested, and the “effect on inward currents evoked by TFLLR” value ([1]; CNQX 10 μM, glutamine-free medium) was “completely abolished” and the “effect on detection of neuronal glutamate release evoked by hyperosmotic solution” value (cultured neurons; 10 μM CNQX, hyperosmotic solution 530 mosmol) was “abolished”.
